Reference: patent US20060233714A1, “Use of a volatile liquid at atmospheric pressure and ambient temperature for the production of pharmaceutical or biological compositions” (priority 2003, published 2006)

Tests used:
[1] = Evaporation time of the liquid brought into contact with living human hands; type: physicochemical; conditions: liquid applied to living human hands/skin; averages; 1 ml or 2 ml
Method: For an HFE having a vapor pressure at 25° C. and atmospheric pressure of 28,000 Pa (280 mbar), the evaporation time when 1 ml is brought into contact with living human hands was about 4 seconds; for an HFE having a vapor pressure at 25° C. and atmospheric pressure of 14,000 Pa (140 mbar), the evaporation time was 7 seconds; for an HFE having a vapor pressure at 25° C. and atmospheric pressure of 2100 Pa (21 mbar), the evaporation time was about 15 seconds; and for an HFE having a vapor pressure at 25° C. and atmospheric pressure of 69,800 Pa, the evaporation time was about 1 s.
The evaporation times indicated above are averages for 2 ml applied to the skin. They depend in particular on the temperature of the substrate to which they are applied and can vary between individuals, for application to the skin and mucosae, according to the body temperature and room temperature.

[2] = Vapor pressure at 25° C. and atmospheric pressure

Row | Compound | evaporation time on the hands [1] | vapor pressure at 25° C. and atmospheric pressure [2]
1 | COC(F)(F)C(F)(F)C(F)(F)F [methoxyheptafluoropropane] | about 1 s | 69,800 Pa
2 | ethoxynonafluorobutane | about 7 s | –
3 | methoxynonafluorobutane | about 4 s | 28,000 Pa
